Test results published in ChEMBL document CHEMBL1201861, “Genomics of Drug Sensitity in Cancer screening data, Wellcome Trust Sanger Institute”.

Legend:
COLO-792 = test: cells; assay type: functional, cell-based; conditions: Homo sapiens
Description: SANGER: Inhibition of human COLO-792 cell growth in a cell viability assay.

DG-75 = test: cells; assay type: functional, cell-based; conditions: Homo sapiens
Description: SANGER: Inhibition of human DG-75 cell growth in a cell viability assay.

Detroit 562 = test: cells; assay type: functional, cell-based; conditions: Homo sapiens
Description: SANGER: Inhibition of human Detroit562 cell growth in a cell viability assay.

DoTc2-4510 = test: cells; assay type: functional, cell-based; conditions: Homo sapiens
EGI-1 = test: cells; assay type: functional, cell-based; conditions: Homo sapiens
Description: SANGER: Inhibition of human EGI-1 cell growth in a cell viability assay.

EHEB = test: cells; assay type: functional, cell-based; conditions: Homo sapiens
Description: SANGER: Inhibition of human EHEB cell growth in a cell viability assay.

G-401 = test: cells; assay type: functional, cell-based; conditions: Homo sapiens
Description: SANGER: Inhibition of human G-401 cell growth in a cell viability assay.

GAMG = test: cells; assay type: functional, cell-based; conditions: Homo sapiens
Description: SANGER: Inhibition of human GAMG cell growth in a cell viability assay.

GP5d = test: cells; assay type: functional, cell-based; conditions: Homo sapiens
Description: SANGER: Inhibition of human GP5d cell growth in a cell viability assay.

HCC1806 = test: cells; assay type: functional, cell-based; conditions: Homo sapiens
Description: SANGER: Inhibition of human HCC1806 cell growth in a cell viability assay.

HN = test: cells; assay type: functional, cell-based; conditions: Homo sapiens
Description: SANGER: Inhibition of human HN cell growth in a cell viability assay.

HSC-3 = test: cells; assay type: functional, cell-based; conditions: Homo sapiens
Description: SANGER: Inhibition of human HSC-3 cell growth in a cell viability assay.

HuO9 = test: cells; assay type: functional, cell-based; conditions: Homo sapiens
Description: SANGER: Inhibition of human HuO9 cell growth in a cell viability assay.

HuP-T4 = test: cells; assay type: functional, cell-based; conditions: Homo sapiens
Description: SANGER: Inhibition of human HuP-T4 cell growth in a cell viability assay.

J82 = test: cells; assay type: functional, cell-based; conditions: Homo sapiens
Description: SANGER: Inhibition of human J82 cell growth in a cell viability assay.

Kasumi 1 = test: cells; assay type: functional, cell-based; conditions: Homo sapiens
Description: SANGER: Inhibition of human KASUMI-1 cell growth in a cell viability assay.

LCLC-103H cell line = test: cells; assay type: functional, cell-based; conditions: Homo sapiens
Description: SANGER: Inhibition of human LCLC-103H cell growth in a cell viability assay.

LN-405 = test: cells; assay type: functional, cell-based; conditions: Homo sapiens
Description: SANGER: Inhibition of human LN-405 cell growth in a cell viability assay.

LP-1 = test: cells; assay type: functional, cell-based; conditions: Homo sapiens
Description: SANGER: Inhibition of human LP-1 cell growth in a cell viability assay.

M059J = test: cells; assay type: functional, cell-based; conditions: Homo sapiens
Description: SANGER: Inhibition of human M059J cell growth in a cell viability assay.

M14 = test: cells; assay type: functional, cell-based; conditions: Homo sapiens
Description: SANGER: Inhibition of human M14 cell growth in a cell viability assay.

MDA-MB-157 = test: cells; assay type: functional, cell-based; conditions: Homo sapiens
Description: SANGER: Inhibition of human MDA-MB-157 cell growth in a cell viability assay.

NB12 = test: cells; assay type: functional, cell-based; conditions: Homo sapiens
Description: SANGER: Inhibition of human NB12 cell growth in a cell viability assay.

NCI-H1623 = test: cells; assay type: functional, cell-based; conditions: Homo sapiens
Description: SANGER: Inhibition of human NCI-H1623 cell growth in a cell viability assay.

NCI-H1792 = test: cells; assay type: functional, cell-based; conditions: Homo sapiens
Description: SANGER: Inhibition of human NCI-H1792 cell growth in a cell viability assay.

NCI-H187 = test: cells; assay type: functional, cell-based; conditions: Homo sapiens
Description: SANGER: Inhibition of human NCI-H187 cell growth in a cell viability assay.

NCI-H460 = test: cells; assay type: functional, cell-based; conditions: Homo sapiens
Description: SANGER: Inhibition of human NCI-H460 cell growth in a cell viability assay.

NCI-H520 = test: cells; assay type: functional, cell-based; conditions: Homo sapiens
Description: SANGER: Inhibition of human NCI-H520 cell growth in a cell viability assay.

NCI-H64 = test: cells; assay type: functional, cell-based; conditions: Homo sapiens
Description: SANGER: Inhibition of human NCI-H64 cell growth in a cell viability assay.

NCI-H716 = test: cells; assay type: functional, cell-based; conditions: Homo sapiens
Description: SANGER: Inhibition of human NCI-H716 cell growth in a cell viability assay.

NCI-H719 = test: cells; assay type: functional, cell-based; conditions: Homo sapiens
Description: SANGER: Inhibition of human NCI-H719 cell growth in a cell viability assay.

OVCAR-3 = test: cells; assay type: functional, cell-based; conditions: Homo sapiens
Description: SANGER: Inhibition of human OVCAR-3 cell growth in a cell viability assay.

PANC-08-13 = test: cells; assay type: functional, cell-based; conditions: Homo sapiens
Description: SANGER: Inhibition of human PANC-08-13 cell growth in a cell viability assay.

RD = test: cells; assay type: functional, cell-based; conditions: Homo sapiens
Description: SANGER: Inhibition of human RD cell growth in a cell viability assay.

RL = test: cells; assay type: functional, cell-based; conditions: Homo sapiens
Description: SANGER: Inhibition of human RL cell growth in a cell viability assay.

RMG-I = test: cells; assay type: functional, cell-based; conditions: Homo sapiens
Description: SANGER: Inhibition of human RMG-I cell growth in a cell viability assay.

RPMI-6666 = test: cells; assay type: functional, cell-based; conditions: Homo sapiens
Description: SANGER: Inhibition of human RPMI-6666 cell growth in a cell viability assay.

RPMI-7951 = test: cells; assay type: functional, cell-based; conditions: Homo sapiens
Description: SANGER: Inhibition of human RPMI-7951 cell growth in a cell viability assay.

RPMI 8402 = test: SANGER: Inhibition of human RPMI-8402 cell growth in a cell viability assay.; assay type: functional, cell-based
SCC-3 = test: cells; assay type: functional, cell-based; conditions: Homo sapiens
Description: SANGER: Inhibition of human SCC-3 cell growth in a cell viability assay.

SF-295 = test: cells; assay type: functional, cell-based; conditions: Homo sapiens
Description: SANGER: Inhibition of human SF295 cell growth in a cell viability assay.

SK-HEP1 = test: cells; assay type: functional, cell-based, SK-HEP-1; conditions: Homo sapiens
Description: SANGER: Inhibition of human SK-HEP-1 cell growth in a cell viability assay.

SK-LU-1 = test: cells; assay type: functional, cell-based; conditions: Homo sapiens
Description: SANGER: Inhibition of human SK-LU-1 cell growth in a cell viability assay.

SW1463 = test: cells; assay type: functional, cell-based; conditions: Homo sapiens
Description: SANGER: Inhibition of human SW1463 cell growth in a cell viability assay.

SW48 = test: cells; assay type: functional, cell-based; conditions: Homo sapiens
Description: SANGER: Inhibition of human SW48 cell growth in a cell viability assay.

SW-620 = test: cells; assay type: functional, cell-based; conditions: Homo sapiens
Description: SANGER: Inhibition of human SW620 cell growth in a cell viability assay.

SW626 = test: cells; assay type: functional, cell-based; conditions: Homo sapiens
Description: SANGER: Inhibition of human SW626 cell growth in a cell viability assay.

T98G = test: cells; assay type: functional, cell-based; conditions: Homo sapiens
Description: SANGER: Inhibition of human T98G cell growth in a cell viability assay.

TCC-SUP = test: cells; assay type: functional, cell-based; conditions: Homo sapiens
Description: SANGER: Inhibition of human TCCSUP cell growth in a cell viability assay.

A204 = test: cells; assay type: functional, cell-based; conditions: Homo sapiens
Description: SANGER: Inhibition of human A204 cell growth in a cell viability assay.

ABC-1 = test: cells; assay type: functional, cell-based; conditions: Homo sapiens
Description: SANGER: Inhibition of human ABC-1 cell growth in a cell viability assay.

BC1 cell line = test: SANGER: Inhibition of human BC-1 cell growth in a cell viability assay.; assay type: functional, cell-based
BCPAP = test: cells; assay type: functional, cell-based; conditions: Homo sapiens
Description: SANGER: Inhibition of human BCPAP cell growth in a cell viability assay.

BFTC-905 = test: cells; assay type: functional, cell-based; conditions: Homo sapiens
Description: SANGER: Inhibition of human BFTC-905 cell growth in a cell viability assay.

BHT-101 = test: cells; assay type: functional, cell-based; conditions: Homo sapiens
Description: SANGER: Inhibition of human BHT-101 cell growth in a cell viability assay.

BPH-1 = test: cells; assay type: functional, cell-based; conditions: Homo sapiens
Description: SANGER: Inhibition of human BPH-1 cell growth in a cell viability assay.

CAL-148 = test: cells; assay type: functional, cell-based; conditions: Homo sapiens
Description: SANGER: Inhibition of human CAL-148 cell growth in a cell viability assay.

CAL-39 = test: cells; assay type: functional, cell-based; conditions: Homo sapiens
Description: SANGER: Inhibition of human CAL-39 cell growth in a cell viability assay.

CAL-72 = test: cells; assay type: functional, cell-based; conditions: Homo sapiens
Description: SANGER: Inhibition of human CAL-72 cell growth in a cell viability assay.

THP-1 = test: cells; assay type: functional, cell-based; conditions: Homo sapiens
Description: SANGER: Inhibition of human THP-1 cell growth in a cell viability assay.

TUR = test: cells; assay type: functional, cell-based; conditions: Homo sapiens
Description: SANGER: Inhibition of human TUR cell growth in a cell viability assay.

UMC-11 = test: cells; assay type: functional, cell-based; conditions: Homo sapiens
Description: SANGER: Inhibition of human UMC-11 cell growth in a cell viability assay.

WM-115 = test: cells; assay type: functional, cell-based; conditions: Homo sapiens
Description: SANGER: Inhibition of human WM-115 cell growth in a cell viability assay.

CAMA-1 = test: cells; assay type: functional, cell-based; conditions: Homo sapiens
Description: SANGER: Inhibition of human CAMA-1 cell growth in a cell viability assay.

CHL-1 = test: cells; assay type: functional, cell-based; conditions: Homo sapiens
Description: SANGER: Inhibition of human CHL-1 cell growth in a cell viability assay.

## O=c1[nH]c2ccccc2n1C1CCN(Cc2ccc(-c3nc4cc5[nH]cnc5cc4nc3-c3ccccc3)cc2)CC1
COLO-792
  IC50: > 2560 nM
DG-75
  IC50: > 2560 nM
Detroit 562
  IC50: > 2560 nM
DoTc2-4510
  IC50: > 2560 nM
EGI-1
  IC50: > 2560 nM
EHEB
  IC50: > 2560 nM
G-401
  IC50: > 2560 nM
GAMG
  IC50: > 2560 nM
GP5d
  IC50: > 2560 nM
HCC1806
  IC50: > 2560 nM
HN
  IC50: > 2560 nM
HSC-3
  IC50: > 2560 nM
HuO9
  IC50: 1550 nM
HuP-T4
  IC50: > 2560 nM
J82
  IC50: > 2560 nM
Kasumi 1
  IC50: 1410 nM
LCLC-103H cell line
  IC50: > 2560 nM
LN-405
  IC50: > 2560 nM
LP-1
  IC50: > 2560 nM
M059J
  IC50: > 2560 nM
M14
  IC50: > 2560 nM
MDA-MB-157
  IC50: > 2560 nM
NB12
  IC50: > 2560 nM
NCI-H1623
  IC50: > 2560 nM
NCI-H1792
  IC50: > 2560 nM
NCI-H187
  IC50: > 2560 nM
NCI-H460
  IC50: > 2560 nM
NCI-H520
  IC50: 1130 nM
NCI-H64
  IC50: > 2560 nM
NCI-H716
  IC50: > 2560 nM
NCI-H719
  IC50: > 2560 nM
OVCAR-3
  IC50: 1840 nM
PANC-08-13
  IC50: > 2560 nM
RD
  IC50: > 2560 nM
RL
  IC50: > 2560 nM
RMG-I
  IC50: > 2560 nM
RPMI-6666
  IC50: > 2560 nM
RPMI-7951
  IC50: > 2560 nM
RPMI 8402
  IC50: > 2560 nM
SCC-3
  IC50: > 2560 nM
SF-295
  IC50: > 2560 nM
SK-HEP1
  IC50: > 2560 nM
SK-LU-1
  IC50: > 2560 nM
SW1463
  IC50: > 2560 nM
SW48
  IC50: > 2560 nM
SW-620
  IC50: > 2560 nM
SW626
  IC50: > 2560 nM
T98G
  IC50: > 2560 nM
TCC-SUP
  IC50: > 2560 nM
A204
  IC50: > 2560 nM
ABC-1
  IC50: > 2560 nM
BC1 cell line
  IC50: > 2560 nM
BCPAP
  IC50: > 2560 nM
BFTC-905
  IC50: > 2560 nM
BHT-101
  IC50: > 2560 nM
BPH-1
  IC50: > 2560 nM
CAL-148
  IC50: > 2560 nM
CAL-39
  IC50: > 2560 nM
CAL-72
  IC50: > 2560 nM
THP-1
  IC50: > 2560 nM
TUR
  IC50: > 2560 nM
UMC-11
  IC50: > 2560 nM
WM-115
  IC50: > 2560 nM
CAMA-1
  IC50: > 2560 nM
CHL-1
  IC50: > 2560 nM

## CC(C)=CC[C@@H](O)C1=CC(=O)c2c(O)ccc(O)c2C1=O [SHIKONIN]
COLO-792
  IC50: > 16000 nM
DG-75
  IC50: 1170 nM
Detroit 562
  IC50: > 16000 nM
DoTc2-4510
  IC50: 263 nM
EGI-1
  IC50: 2510 nM
EHEB
  IC50: 2090 nM
G-401
  IC50: 235 nM
GAMG
  IC50: 1710 nM
GP5d
  IC50: 1340 nM
HCC1806
  IC50: 1270 nM
HN
  IC50: 1370 nM
HSC-3
  IC50: 337 nM
HuO9
  IC50: 1660 nM
HuP-T4
  IC50: 1360 nM
J82
  IC50: 143 nM
Kasumi 1
  IC50: 124 nM
LCLC-103H cell line
  IC50: 346 nM
LN-405
  IC50: 6910 nM
LP-1
  IC50: 686 nM
M059J
  IC50: 134 nM
M14
  IC50: 1490 nM
MDA-MB-157
  IC50: 637 nM
NB12
  IC50: 666 nM
NCI-H1623
  IC50: 2730 nM
NCI-H1792
  IC50: > 16000 nM
NCI-H187
  IC50: 2360 nM
NCI-H460
  IC50: 1280 nM
NCI-H520
  IC50: 1350 nM
NCI-H64
  IC50: 547 nM
NCI-H716
  IC50: > 16000 nM
NCI-H719
  IC50: 2610 nM
OVCAR-3
  IC50: 383 nM
PANC-08-13
  IC50: 10400 nM
RD
  IC50: 449 nM
RL
  IC50: > 16000 nM
RMG-I
  IC50: 864 nM
RPMI-6666
  IC50: 587 nM
RPMI-7951
  IC50: 156 nM
RPMI 8402
  IC50: 1500 nM
SCC-3
  IC50: 1000 nM
SF-295
  IC50: 664 nM
SK-HEP1
  IC50: 548 nM
SK-LU-1
  IC50: 750 nM
SW1463
  IC50: 8610 nM
SW48
  IC50: 1260 nM
SW-620
  IC50: 359 nM
SW626
  IC50: 635 nM
T98G
  IC50: 1080 nM
TCC-SUP
  IC50: 554 nM
A204
  IC50: 127 nM
ABC-1
  IC50: 707 nM
BC1 cell line
  IC50: 2680 nM
BCPAP
  IC50: 923 nM
BFTC-905
  IC50: 284 nM
BHT-101
  IC50: 1250 nM
BPH-1
  IC50: 1260 nM
CAL-148
  IC50: 677 nM
CAL-39
  IC50: 483 nM
CAL-72
  IC50: 1010 nM
THP-1
  IC50: 891 nM
TUR
  IC50: 466 nM
UMC-11
  IC50: > 16000 nM
WM-115
  IC50: 10600 nM
CAMA-1
  IC50: 1520 nM
CHL-1
  IC50: 168 nM
